Laboratory results as given in paper PMC10801775 (The Journal of Pharmacology and Experimental Therapeutics, 2024).

Columns and labels:
[1] = rat, in vivo
[2] = design: species or system Sprague-Dawley rats; conditions: rat, in vivo

Question: Which results are given for `CCOP(=O)(OCC)Oc1ccc([N+](=O)[O-])cc1` [POX, O,O-diethyl-O-p-nitrophenylphosphate]?
Answer: RBC fraction relative to naïve and 60-minute studies [1]: about twice; RBC fraction, % of total radioactivity [1]: 20%; metabolite level in blood relative to naïve rats (or rats 60 minutes after POX) [1]: 5 fold; reduction of total percent radioactivity of plasma proteins [1]: ~20%; brain AUC as % of naïve [2]: > 80%; heart AUC restored, % of naïve AUC level [2]: 25%; liver AUC increase versus naïve [2]: 4 fold; lung AUC restored, % of naïve AUC level [2]: 50%; mean brain region radioactivity higher than naïve rats [2]: up to 2 fold
